Data: patent EP1762239A1, “Lofexidine for intraspinal administration” (Texcontor Etablissement, priority 2005, dated 2007)
Values joined by “and” are separate entries in the source; they are usually repeats but may differ in a detail not shown here. Equal values may be shown once. Where a name gives a salt, the structure may show the parent alone. Marks after values point to notes of the source that are not given here.

Assays:
[1] = systemically (e.g. orally or by intravenous injection), especially at high doses (e.g. >600 µg per day); cited from earlier work
[2] = test system: rat model of post-operative pain; experiment: Rat model of post-operative pain (plantar incision), tactile allodynia by electronic von Frey; assay type: in vivo, Wistar rats; settings: for Tactile Pressure (g) Post-treatment 15min. / Tactile Pressure (g) Post-treatment 30min. / Tactile Pressure (g) Post-treatment 60min. / Tactile Pressure (g) Post-treatment 120 min.: 24 hours after surgery, single readings at 4 points per rat; for Tactile Pressure (g) Post-treatment 15min. Ave. / Tactile Pressure (g) Post-treatment 30min. Ave. / Tactile Pressure (g) Post-treatment 60min. Ave. / Tactile Pressure (g) Post-treatment 120 min. Ave.: average of 4 points; for Tactile Pressure (g) Post-treatment 15min. Mean / Tactile Pressure (g) Post-treatment 30min. Mean / Tactile Pressure (g) Post-treatment 60min. Mean / Tactile Pressure (g) Post-treatment 120 min. Mean: group mean of 5 rats; for Δ Treatment 15min. / Δ Treatment 30min. / Δ Treatment 60min. / Δ Treatment 120 min.: (Post-Treatment) - (Pre-Treatment)
Experimental: Lofexidine at 0.00032 and 0.0032 mg/rat injected intrathecally (ITH) was evaluated for possible analgesic activity in a rat model of post-operative pain which was induced with an incision made on the plantar surface of the hind paw. To measure tactile allodynia, a supertip with a flattened surface connected to Electrovonfrey Aesthethiometer (IITC, USA) was applied slowly and gently onto the plantar surface of the hind paw, where 4 points around the incision were identified. The endpoint is the mean withdrawal threshold values (gm) in response to von Frey filament, serving as a measure of analgesic activity. Percent inhibition was calculated as Δ treatment values (change in threshold pressure caused by treatment) relative to Δ blank values (change in threshold value caused by incision). Lofexidine.HCl was dissolved in 0.9% NaCl and at doses of 0.00032 and 0.0032 mg/rat was administered intrathecally (ITH). The dosing volume was 10 µl/rat. Male Wistar derived rats weighing 270 ± 30 g provided by BioLasco Taiwan (under Charles River Laboratories Technology licensee) were used. Space allocation for animals was 45 x 23 x 15 cm for 6 rats. Animals were housed in APEC^R cages. All animals were maintained in a controlled temperature (22-24°C) and humidity (60%-80%) environment with 12 hours light dark cycles for at least one week in MDS Pharma Services-Taiwan Laboratory prior to use. Free access to standard lab chow (Lab Diet, Rodent Diet, PMI Nutrition International, USA) and tap water was granted. All aspects of this work including housing, experimentation and disposal of animals were performed in general accordance with the Guide for the Care and Use of Laboratory Animals (National Academy Press, Washington, D. C, 1996). Groups of 5 male Wistar rats weighing 270 ± 30 g were used. Prior to surgery, individual animals were acclimatised to the testing environment and baseline responses to Electronic Von Frey Aesthesiometer (2290CE Electrovonfrey®, IITC, USA) with a rigid tip were performed (Pre-Incision). Under pentobarbital (50 mg/kg, 5 ml/kg, i.p.) anesthesia, the left hind paw was aseptically prepared. A 1-cm longitudinal incision was made with a number 11 blade, through the skin and fascia of the plantar aspect of the foot, starting 0.5 cm from the proximal edge of the heel and extending toward the toes. The plantaris muscle was elevated and incised longitudinally, followed by crushing with a mosquito hemostat for 20 seconds. The muscle origin and insertion remained intact After hemostasis with gentle pressure, the skin and fascia were then closed as one layer using 4-0 silk suture. Evaluation for pain was performed at 24 hours postoperatively between 08:00 and 16:00h. Each animal was monitored at 15, 30, 60 and 120 minutes after intrathecal administration of lofexidine.HCl. The rats were placed under inverted plexiglas cages on a wire mesh rack and a brief observation of general behavior post-injection was made. The rigid tip part of the Electronic Von Frey Aesthesiometer was applied perpendicularly from underneath the mesh floor to the four points around the wound surface of the animal with slow upward force against the paw. A positive response to tactile pressure was recorded if the paw was sharply withdrawn; ambulation was considered an ambiguous response, and in such cases, the stimulus was reapplied. Mean values from 4 points for each rat and from 5 rats in each group were calculated. Percent inhibition due to treatment relative to pre-treatment pain response was calculated according to the formula: Tactile Pressure [(Post-Treatment) - (Pre-Treatment)]/[(Pre-Incision) - (Pre-Treatment)] x 100%. Inhibition by 50% or more (≥50%) is considered significant analgesic effect. Unpaired Student's t test is applied for comparison of the % inhibition values between test substance-and vehicle-treated groups. Significance is considered at P<0.05 level

[3] = Brief observation of general behavior after intrathecal injection; assay type: in vivo, Wistar rats; settings: 0.00032 mg/rat and 0.0032 mg/rat (ITH)
Experimental: Evaluation for pain was performed at 24 hours postoperatively between 08:00 and 16:00h. Each animal was monitored at 15, 30, 60 and 120 minutes after intrathecal administration of lofexidine.HCl. The rats were placed under inverted plexiglas cages on a wire mesh rack and a brief observation of general behavior post-injection was made. The rigid tip part of the Electronic Von Frey Aesthesiometer was applied perpendicularly from underneath the mesh floor to the four points around the wound surface of the animal with slow upward force against the paw. A positive response to tactile pressure was recorded if the paw was sharply withdrawn; ambulation was considered an ambiguous response, and in such cases, the stimulus was reapplied. Mean values from 4 points for each rat and from 5 rats in each group were calculated. Percent inhibition due to treatment relative to pre-treatment pain response was calculated according to the formula: Tactile Pressure [(Post-Treatment) - (Pre-Treatment)]/[(Pre-Incision) - (Pre-Treatment)] x 100%. Inhibition by 50% or more (≥50%) is considered significant analgesic effect. Unpaired Student's t test is applied for comparison of the % inhibition values between test substance-and vehicle-treated groups. Significance is considered at P<0.05 level

[4] = given orally; dosages of up to 1200 µg per day; Human Reproduction, Vol. 16, No. 8, 2001; cited from earlier work
[5] = 0.00032 mg/rat ITH, individual rat
[6] = 0.00032 mg/rat ITH, group, Δ Treatment/Δ Blank x 100%
[7] = 0.00032 mg/rat ITH, group, Δ Blank 30.2
[8] = 0.0032 mg/rat ITH, individual rat
[9] = 0.0032 mg/rat ITH, group, Δ Treatment/Δ Blank x 100%, ≥50% considered significant
[10] = 0.0032 mg/rat ITH, group, Δ Blank 32.9

Question: What does the source list for `CC(Oc1c(Cl)cccc1Cl)C1=NCCN1` (stereo not drawn) [Lofexidine HCl]?
Answer: common symptoms associated with use [1]: drowsiness, sedation and blood pressure and heart rate increases; analgesic effect ([2]; 0.00032 mg/rat ITH): slight analgesic effect; Tactile Pressure (g) Post-treatment 15min. ([2]; 0.00032 mg/rat ITH): 26.6 g and 26.9 g and 28.6 g and 23.1 g (2×) and 21.6 g and 17.6 g and 23.3 g and 15.5 g and 18.4 g and 21.1 g and 19.3 g and 23.6 g and 20.5 g and 24.6 g and 20.1 g and 17.9 g and 19.2 g and 14.4 g and 20.6 g; Tactile Pressure (g) Post-treatment 30min. ([2]; 0.00032 mg/rat ITH): 25.9 g and 23.6 g and 32.5 g and 18.6 g and 25.7 g and 28.4 g and 26.0 g and 20.6 g and 22.3 g and 20.4 g and 17.3 g and 24.6 g and 21.6 g and 22.5 g and 24.4 g and 24.3 g and 20.0 g and 19.4 g and 18.2 g and 19.2 g; Tactile Pressure (g) Post-treatment 60min. ([2]; 0.00032 mg/rat ITH): 23.3 g and 27.3 g and 23.6 g and 26.6 g and 22.9 g and 19.7 g (2×) and 24.4 g and 19.2 g and 19.9 g and 20.3 g and 22.6 g and 18.4 g and 25.1 g and 21.2 g and 22.0 g and 16.2 g and 21.1 g and 20.5 g and 21.6 g; Tactile Pressure (g) Post-treatment 120 min. ([2]; 0.00032 mg/rat ITH): 20.6 g (3×) and 21.0 g (2×) and 17.2 g and 19.9 g (2×) and 24.3 g and 21.2 g and 18.9 g and 21.6 g and 22.0 g and 18.0 g and 20.3 g and 22.4 g (2×) and 23.9 g and 18.6 g and 16.8 g; Tactile Pressure (g) Post-treatment 15min. Ave. [2, 5]: 26.3 g and 21.4 g and 18.6 g and 22.2 g and 18.0 g; Tactile Pressure (g) Post-treatment 30min. Ave. [2, 5]: 25.2 g (2×) and 21.2 g and 23.2 g and 19.2 g; Tactile Pressure (g) Post-treatment 60min. Ave. [2, 5]: 25.2 g and 21.6 g and 20.3 g and 22.0 g and 19.9 g; Tactile Pressure (g) Post-treatment 120 min. Ave. [2, 5]: 19.7 g and 21.4 g and 21.2 g (2×) and 19.4 g; Tactile Pressure (g) Post-treatment 15min. Mean ([2]; 0.00032 mg/rat ITH): 21.3 g; Tactile Pressure (g) Post-treatment 30min. Mean ([2]; 0.00032 mg/rat ITH): 22.8* g; Tactile Pressure (g) Post-treatment 60min. Mean ([2]; 0.00032 mg/rat ITH): 21.8 g; Tactile Pressure (g) Post-treatment 120 min. Mean ([2]; 0.00032 mg/rat ITH): 20.6 g; %Inh 15min. [2, 6]: 2.6%; %Inh 30min. [2, 6]: 7.6%; %Inh 60min. [2, 6]: 4.3%; %Inh 120 min. [2, 6]: 0.3%; Δ Treatment 15min. [2, 7]: 0.8 g; Δ Treatment 30min. [2, 7]: 2.3 g; Δ Treatment 60min. [2, 7]: 1.3 g; Δ Treatment 120 min. [2, 7]: 0.1 g; %Inh 15min. [2, 5]: 14.9% and 2.5% and -5.6% and 8.0% and -7.4%; %Inh 30min. [2, 5]: 11.1% and 12.8% and 4.1% and 11.4% and -3.2%; %Inh 60min. [2, 5]: 11.1% and 3.0% and 0.8% and 7.4% and -0.7%; %Inh 120 min. [2, 5]: -7.4% and 2.5% and 4.1% and 4.7% and -2.5%; Tactile Pressure (g) Post-treatment 15min. ([2]; 0.0032 mg/rat ITH): 48.4 g and 47.2 g and 55.3 g and 30.4 g and 23.5 g and 48.7 g and 43.0 g and 36.2 g and 32.4 g and 33.8 g and 21.4 g and 31.9 g and 37.7 g and 42.5 g (2×) and 34.5 g and 30.5 g and 40.7 g and 60.0 g and 40.6 g; Tactile Pressure (g) Post-treatment 30min. ([2]; 0.0032 mg/rat ITH): 36.4 g and 34.8 g and 44.1 g and 39.3 g and 34.1 g and 44.0 g and 38.1 g and 36.5 g and 36.8 g and 28.8 g and 30.3 g and 33.2 g and 34.5 g and 40.1 g and 37.2 g and 26.8 g and 27.7 g and 44.2 g and 54.3 g and 50.8 g; Tactile Pressure (g) Post-treatment 60min. ([2]; 0.0032 mg/rat ITH): 33.6 g and 35.6 g and 35.5 g and 36.7 g and 29.0 g and 28.5 g and 40.6 g and 31.8 g and 16.1 g and 16.5 g and 21.8 g and 16.6 g and 24.3 g and 26.8 g and 21.3 g and 21.1 g and 31.3 g and 41.3 g and 32.5 g and 49.5 g; Tactile Pressure (g) Post-treatment 120 min. ([2]; 0.0032 mg/rat ITH): 29.3 g and 21.6 g (2×) and 20.4 g and 19.2 g and 22.9 g and 22.1 g and 21.4 g and 14.5 g and 21.5 g and 17.6 g and 18.8 g and 16.2 g and 22.6 g and 24.7 g and 18.6 g and 31.1 g and 28.6 g and 27.9 g and 28.7 g; Tactile Pressure (g) Post-treatment 15min. Ave. [2, 8]: 45.3 g and 37.9 g and 29.9 g and 36.3 g and 46.0 g; Tactile Pressure (g) Post-treatment 30min. Ave. [2, 8]: 38.7 g and 38.2 g and 32.3 g and 34.7 g and 44.3 g; Tactile Pressure (g) Post-treatment 60min. Ave. [2, 8]: 35.4 g and 32.5 g and 17.8 g and 23.4 g and 38.7 g; Tactile Pressure (g) Post-treatment 120 min. Ave. [2, 8]: 22.6 g and 22.0 g and 18.1 g and 20.5 g and 29.1 g; Tactile Pressure (g) Post-treatment 15min. Mean ([2]; 0.0032 mg/rat ITH): 39.1* g; Tactile Pressure (g) Post-treatment 30min. Mean ([2]; 0.0032 mg/rat ITH): 37.6* g; Tactile Pressure (g) Post-treatment 60min. Mean ([2]; 0.0032 mg/rat ITH): 29.6 g; Tactile Pressure (g) Post-treatment 120 min. Mean ([2]; 0.0032 mg/rat ITH): 22.5 g; %Inh. 15 min. [2, 9]: (55.9) %; %Inh. 30min. [2, 9]: (51.4) %; %Inh. 60min. [2, 9]: 27.1%; %Inh. 120 min. [2, 9]: 5.5%; Δ Treatment 15min. [2, 10]: 18.4 g; Δ Treatment 30min. [2, 10]: 16.9 g; Δ Treatment 60min. [2, 10]: 8.9 g; Δ Treatment 120 min. [2, 10]: 1.8 g; %Inh 15min. [2, 8]: 67.7% and 46.2% and 39.2% and 41.8% and 84.2%; %Inh 30min. [2, 8]: 48.4% and 47.0% and 47.7% and 36.7% and 78.8%; %Inh 60min. [2, 8]: 38.7% and 32.5% and -3.5% and 0.9% and 60.8%; %Inh 120 min. [2, 8]: 1.2% and 5.8% and -2.5% and -8.2% and 29.9%; analgesic effect against post-operative pain ([2]; 0.0032 mg/rat intrathecal, at 15 and 30 minute time points, compared with Δ blank values): demonstrated analgesic effect; behavioral changes in treated animals [3]: did not cause behavioral changes; gait after intrathecal injection ([3]; all treated animals): normal gait; effectiveness for treatment of chronic pelvic pain [4]: not effective
